# Experimental data: patent US12397031B2, “Lonicera japonica flower water extract-containing pharmaceutical composition for preventing or treating Helicobacter pylori infection” (GREEN CROSS WELLBEING CORPORATION, priority 2018, dated 2025)
# Assays:
# [1] = system: Helicobacter pylori; assay: Selective antibacterial effect on Helicobacter pylori versus Escherichia coli and Staphylococcus aureus; type: cell-based; settings: under the same condition
# [2] = system: Helicobacter pylori (ATCC43504) strain; assay: Antibacterial activity on Helicobacter pylori, paper disc clear zone; type: cell-based; settings: 20 μl on 6 mm paper disc, 72 hours, pure inhibition zone
# Description: A Helicobacter pylori (ATCC43504) strain was smeared in a Brucella Agar medium containing 10% horse serum, and cultured for 3 days in an incubator of 37° C. and 10% CO: conditions. […] The Examples and Comparative Examples were cultured for 72 hours in an incubator of 37° C. and 10% CO: conditions, and then diameters of generated clear zones were measured and diameters of pure inhibition zones removing perforated diameters were shown in Table 3.
smiles,measurement,setting,value
"C=C[C@H]1[C@H](O[C@@H]2O[C@H](CO)[C@@H](O)[C@H](O)[C@H]2O)OC=C(C(=O)OC)[C@H]1CC(=O)O [Secoxyloganin, secoxyloganin]",selective antibacterial effect on Helicobacter pylori than the antibacterial effect on Escherichia coli and Staphylococcus aureus,[1],≥ 20 times
same,Clear zone (mm),[2]; 0.1 mg/ml,5 mm
same,Clear zone (mm),[2]; 1 mg/ml,9 mm
same,Clear zone (mm),[2]; 10 mg/ml,13 mm
